Source: ChEMBL document CHEMBL1201862, “PubChem BioAssay data set” (2004)
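Assay format: 96-well plates, 48-hour exposure. The concentration for 50% growth inhibition is given as GI50.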 The source made the active and inactive calls. Rule as the data show it: active = GI50 up to about 1.1 µM and inactive = higher.

Columns and labels:
Experiment in all cases: NCI anticancer screen, dose series, 48 h
A549 = test system: A549
EKVX = test system: EKVX
HCT-116 = test system: HCT-116
HT-29 = test system: HT-29
K562 = test system: K562
KM12 = test system: KM12
MOLT-4 = test system: MOLT-4
NCI-H226 = test system: NCI-H226
OVCAR-5 = test system: OVCAR-5
OVCAR-8 = test system: OVCAR-8
RXF 393 = test system: RXF 393
SF-295 = test system: SF-295
SF-539 = test system: SF-539
SK-MEL-28 = test system: SK-MEL-28
SK-MEL-2 = test system: SK-MEL-2
SN12C = test system: SN12C
SNB-19 = test system: SNB-19
UO-31 = test system: UO-31
SK-OV-3 = test system: SK-OV-3
UACC-257 = test system: UACC-257

Measured: GI50

Cc1cc(C)nc(NS(=O)(=O)c2ccc(NC(=O)c3cccn4c(=O)c5ccccc5nc34)cc2)n1
inactive: A549 > 100 µM | EKVX 26.1 µM | HCT-116 53.5 µM | HT-29 40.2 µM | K562 32.1 µM | KM12 41.1 µM | MOLT-4 23.8 µM | NCI-H226 37.6 µM | OVCAR-5 > 100 µM | OVCAR-8 27.7 µM | RXF 393 23.9 µM | SF-295 > 100 µM | SF-539 38.5 µM | SK-MEL-28 38.5 µM | SK-MEL-2 > 100 µM | SN12C 53.2 µM | SNB-19 62.5 µM | UO-31 27.5 µM

COc1cc(/C=C/c2ccc(OC)c(OC)c2)oc(=O)c1
inactive: A549 > 250 µM | EKVX > 116 µM | HCT-116 > 250 µM | HT-29 > 250 µM | K562 > 250 µM | KM12 > 250 µM | MOLT-4 > 250 µM | NCI-H226 > 250 µM | OVCAR-5 > 250 µM | OVCAR-8 10 µM | RXF 393 57 µM | SF-295 162 µM | SF-539 213 µM | SK-MEL-28 > 250 µM | SK-MEL-2 > 213 µM | SK-OV-3 > 250 µM | SN12C > 250 µM | SNB-19 > 218 µM | UACC-257 > 250 µM | UO-31 > 250 µM

CCOC(=O)C1=C(C)N2CCCOC2(C)C(C(=O)OC)C1c1cccc([N+](=O)[O-])c1 (stereo not given)
inactive: A549 64.3 µM | EKVX 50 µM | HCT-116 49.7 µM | HT-29 > 100 µM | K562 55.2 µM | KM12 49.9 µM | MOLT-4 34.3 µM | NCI-H226 > 100 µM | OVCAR-8 48 µM | RXF 393 > 100 µM | SF-295 45.2 µM | SF-539 > 100 µM | SK-MEL-28 > 100 µM | SK-MEL-2 > 100 µM | SNB-19 > 100 µM | UACC-257 86.5 µM | UO-31 51.6 µM

CCOC(=O)c1ccc(C)c(/N=N/N(C)C)c1
inactive: A549 > 100 µM | EKVX > 100 µM | HCT-116 > 100 µM | HT-29 > 100 µM | K562 > 100 µM | KM12 > 100 µM | MOLT-4 > 100 µM | NCI-H226 > 100 µM | OVCAR-5 > 100 µM | OVCAR-8 > 100 µM | RXF 393 > 100 µM | SF-295 > 100 µM | SF-539 > 100 µM | SK-MEL-28 > 100 µM | SK-MEL-2 > 100 µM | SK-OV-3 > 100 µM | SN12C > 100 µM | SNB-19 86.7 µM | UACC-257 > 100 µM | UO-31 79.8 µM

COc1cccc(N2C(Cl)C(=O)C2c2c[nH]c3ccccc23)c1 (stereo not given)
inactive: A549 > 100 µM | EKVX > 100 µM | HCT-116 > 100 µM | HT-29 > 100 µM | K562 > 100 µM | KM12 > 100 µM | MOLT-4 > 100 µM | OVCAR-5 46.1 µM | OVCAR-8 > 100 µM | RXF 393 > 100 µM | SF-295 > 100 µM | SK-MEL-28 > 100 µM | SK-MEL-2 > 100 µM | SK-OV-3 > 100 µM | SN12C > 100 µM | SNB-19 > 100 µM | UACC-257 > 100 µM | UO-31 42.8 µM

CC(C)NC(=O)OCc1c(CO)c2c(n1C)-c1ccccc1CC2
inactive: A549 40.6 µM | EKVX 69.2 µM | HCT-116 17.2 µM | HT-29 24.5 µM | K562 15.2 µM | KM12 34.4 µM | MOLT-4 14.3 µM | NCI-H226 21.7 µM | OVCAR-5 80.7 µM | OVCAR-8 22.5 µM | RXF 393 23.5 µM | SF-295 86.9 µM | SF-539 23.6 µM | SK-MEL-28 25.9 µM | SK-MEL-2 37.1 µM | SK-OV-3 55.1 µM | SN12C 24.3 µM | SNB-19 42.2 µM | UACC-257 31.3 µM | UO-31 23.7 µM

COc1ccc(CN/C=N/C(C#N)=C(\N)C#N)cc1OC
inactive: A549 > 100 µM | EKVX > 100 µM | HCT-116 > 100 µM | HT-29 > 100 µM | K562 > 100 µM | KM12 > 100 µM | MOLT-4 > 100 µM | NCI-H226 > 100 µM | OVCAR-5 > 100 µM | OVCAR-8 > 100 µM | SF-295 > 100 µM | SF-539 > 100 µM | SK-MEL-28 > 100 µM | SK-MEL-2 > 100 µM | SK-OV-3 > 100 µM | SN12C > 100 µM | SNB-19 > 100 µM | UACC-257 > 100 µM | UO-31 65 µM

Cc1ccc(S(=O)(=O)NC(=N)N(C)N=O)cc1
inactive: A549 19.1 µM | EKVX 85.9 µM | HCT-116 > 100 µM | HT-29 > 100 µM | K562 > 100 µM | KM12 > 100 µM | MOLT-4 > 100 µM | NCI-H226 > 100 µM | OVCAR-5 > 100 µM | OVCAR-8 > 100 µM | RXF 393 > 100 µM | SF-295 > 100 µM | SF-539 > 100 µM | SK-MEL-28 > 100 µM | SK-MEL-2 > 100 µM | SK-OV-3 18.5 µM | SN12C > 100 µM | SNB-19 > 100 µM | UACC-257 > 100 µM | UO-31 > 100 µM

Cc1ccc(C2COc3cc(O)c(O)cc3C2)cc1 (stereo not given)
inactive: A549 43.6 µM | EKVX 20.4 µM | HCT-116 12.4 µM | HT-29 29.7 µM | K562 7.28 µM | KM12 22.4 µM | MOLT-4 4.48 µM | NCI-H226 45.2 µM | OVCAR-5 94 µM | OVCAR-8 15 µM | RXF 393 11.3 µM | SF-295 32.6 µM | SF-539 22.4 µM | SK-MEL-28 13.1 µM | SK-MEL-2 19.2 µM | SK-OV-3 139 µM | SN12C 20.7 µM | SNB-19 39.4 µM | UACC-257 21.3 µM | UO-31 30 µM

Cc1cccc2ns[s+]c12
inactive: A549 > 100 µM | EKVX > 100 µM | HCT-116 20 µM | HT-29 43.1 µM | K562 29.9 µM | KM12 > 100 µM | MOLT-4 38.5 µM | NCI-H226 > 100 µM | OVCAR-5 > 100 µM | OVCAR-8 47.1 µM | SF-295 > 100 µM | SF-539 50.7 µM | SK-MEL-28 > 100 µM | SK-OV-3 > 100 µM | SN12C > 100 µM | SNB-19 66.8 µM | UACC-257 > 100 µM | UO-31 53 µM
